The values that follow come from patent publication US20250270180A1, “MEK INHIBITORS AND THERAPEUTIC USES THEREOF” (Immuneering Corporation, priority 2020, published 2025).

Experiment [1] concerns A549 pERK. Description: A549-pERK, 2 h (quantitative Western, Jess). It is filed as cell-based. As to conditions: Homo sapiens, A549, 2 h, phospho:total ratio normalized to DMSO control; for activity at 0.01 µM: 10 nM. How it is done: (§1) A549 or […] cells were treated in duplicate for two hours with compounds at varying concentrations. After two hours, the cells were lysed, snap frozen, and stored at −80° C. After storage, the lysate was quantified with the Bradford assay. Before the lysates were prepared to run on the Jess, the lysates were diluted to 1 mg/mL for pERK analysis and 1.5 mg/mL pMEK analysis using quantitative Western blotting. ERK and MEK phosphorylation levels were estimated by taking the ratio of phospho-protein to total protein and normalizing to the DMSO control. The results of this study are described in Tables 14-16.

Experiment [2] relates to A549 CRAF BP (MEK phosphorylation). Description: A549-CRAF BP 100 nM, 2 h (pMEK). The class given is cell-based. As to conditions: Homo sapiens, A549, 2 h, phospho:total ratio normalized to DMSO control. As for the experimental part:
as §1

In the case of `CNS(=O)(=O)Nc1cccc(Cc2c(CN3CCNCC3)c3cc(Cl)c(OC(=O)N(C)C)cc3oc2=O)c1F` [Compound 21], the activity at 0.01 µM in experiment [1] amounted to 20.4%. Further, the activity at 0.1 µM in experiment [2] was 47.9%.
In the same order, the values of `CNS(=O)(=O)Nc1cccc(Cc2c(CN(C)C)c3cc(Cl)c(OC(=O)N(C)C)cc3oc2=O)c1F` [Compound 24] are 42.4% and 55.9%.
On the same counts, the results for `CNS(=O)(=O)Nc1cccc(Cc2c(CN(C)C)c3cc(F)c(OC(=O)N(C)C)cc3oc2=O)c1F` [Compound 25] are 66.2% and 71%.
`CNS(=O)(=O)Nc1cccc(Cc2c(CNCC#N)c3ccc(OC(=O)N(C)C)cc3oc2=O)c1F` [Compound 33]: in experiment [1], the activity at 0.01 µM is 55.4%. In addition, the activity at 0.1 µM in experiment [2] was 51.4%.
Regarding `CCN(CC)Cc1c(Cc2cccc(NS(=O)(=O)NC)c2F)c(=O)oc2cc(OC(=O)N(C)C)ccc12` [Compound 73], the activity at 0.01 µM in experiment [1] is 77.7%. In addition, the activity at 0.1 µM in experiment [2] stood at 33.9%.
In the same order, the values of `CNS(=O)(=O)Nc1cccc(Cc2c(CN3CC(OC)C3)c3ccc(OC(=O)N(C)C)cc3oc2=O)c1F` [Compound 74] are 75.3% and 59.2%.
As to `CNS(=O)(=O)Nc1cccc(Cc2c(CNCC(F)(F)F)c3ccc(OC(=O)N(C)C)cc3oc2=O)c1F` [Compound 75], in experiment [2], the activity at 0.1 µM is 66.5%.
Consider `CNS(=O)(=O)Nc1cccc(Cc2c(CN(C)CC(C)C)c3ccc(OC(=O)N(C)C)cc3oc2=O)c1F` [Compound 78], for which the activity at 0.01 µM in experiment [1] is 78.6%. For the same molecule, the activity at 0.1 µM in experiment [2] worked out at 64.2%.
`CNS(=O)(=O)Nc1cccc(Cc2c(CN(C)c3ccccc3)c3ccc(OC(=O)N(C)C)cc3oc2=O)c1F` [Compound 79]: the activity at 0.1 µM in experiment [2] turned out to be 45.2%.
Turning to `CNS(=O)(=O)Nc1cccc(Cc2c(CN(C)Cc3ccccc3)c3ccc(OC(=O)N(C)C)cc3oc2=O)c1F` [Compound 80], the activity at 0.01 µM in experiment [1] came to 56.4%. Further, the activity at 0.1 µM in experiment [2] is 56.1%.
Take `CCCN(C)Cc1c(Cc2cccc(NS(=O)(=O)NC)c2F)c(=O)oc2cc(OC(=O)N(C)C)ccc12` [Compound 81]: the activity at 0.01 µM in experiment [1] came out at 57.6%. Further, the activity at 0.1 µM in experiment [2] is 78.3%.
On the same counts, the results for `CNS(=O)(=O)Nc1cccc(Cc2c(CN(C)C3CC3)c3ccc(OC(=O)N(C)C)cc3oc2=O)c1F` [Compound 82] are 64.9% and 72.3%.
In the same order, the values of `CNS(=O)(=O)Nc1cccc(Cc2c(CN(C)CC3CC3)c3ccc(OC(=O)N(C)C)cc3oc2=O)c1F` [Compound 84] are 83.2% and 87.3%.
Take `CNS(=O)(=O)Nc1cccc(Cc2c(CN(C)C3CCC3)c3ccc(OC(=O)N(C)C)cc3oc2=O)c1F` [Compound 86]: in experiment [1], the activity at 0.01 µM was determined as 96.4%. The activity at 0.1 µM in experiment [2] turned out to be 53.2%.
For `CNS(=O)(=O)Nc1cccc(Cc2c(CN(C)CC#N)c3ccc(OC(=O)N(C)C)cc3oc2=O)c1F` [Compound 87], the activity at 0.01 µM in experiment [1] was 63.8%. Besides, in experiment [2], the activity at 0.1 µM was determined as 95.8%.
On the same counts, the results for `CNS(=O)(=O)Nc1cccc(Cc2c(CN(C)CC3CCC3)c3ccc(OC(=O)N(C)C)cc3oc2=O)c1F` [Compound 88] are 142% and 53.6%.
In the same order, the values of `CNS(=O)(=O)Nc1cccc(Cc2c(CNc3ccsc3)c3ccc(OC(=O)N(C)C)cc3oc2=O)c1F` [Compound 90] are 72.4% and 71%.
For the molecule `CNS(=O)(=O)Nc1cccc(Cc2c(CNc3cncs3)c3ccc(OC(=O)N(C)C)cc3oc2=O)c1F` [Compound 91], the activity at 0.01 µM in experiment [1] was 74.6%. The activity at 0.1 µM in experiment [2] worked out at 84.2%.
For the molecule `CNS(=O)(=O)Nc1cccc(Cc2c(CN(C)c3ccc(Cl)cc3)c3ccc(OC(=O)N(C)C)cc3oc2=O)c1F` [Compound 97], in experiment [1], the activity at 0.01 µM turned out to be 56.5%. The activity at 0.1 µM in experiment [2] came out at 52.1%.
In the same order, the values of `CCS(=O)(=O)Nc1cccc(Cc2c(C)c3ccc(OC(=O)N(C)C)cc3oc2=O)c1F` [Compound 107] are 18% and 39.9%.
In the same order, the values of `CNS(=O)(=O)Nc1cccc(Cc2c(C)c3cc(C)c(OC(=O)N(C)C)cc3oc2=O)c1F` [Compound 108] are 5.78% and 47.9%.
In the same order, the values of `CNS(=O)(=O)Nc1cccc(Cc2c(C)c3cc(Cl)c(OC(=O)N(C)C)cc3oc2=O)c1F` [Compound 109] are 4.51% and 41.9%.
For the molecule `CNS(=O)(=O)Nc1nccc(Cc2c(C)c3cc(C)c(OC(=O)N(C)C)cc3oc2=O)c1F` [Compound 110], the activity at 0.01 µM in experiment [1] came out at 5.92%. Moreover, the activity at 0.1 µM in experiment [2] came to 56.6%.
On the same counts, the results for `CNS(=O)(=O)Nc1nccc(Cc2c(C)c3cc(Cl)c(OC(=O)N(C)C)cc3oc2=O)c1F` [Compound 111] are 4.63% and 48.6%.
In the same order, the values of `Cc1c(Cc2ccnc(NS(=O)(=O)C3CC3)c2F)c(=O)oc2cc(OC(=O)N(C)C)ccc12` [Compound 112] are 46.3% and 52.9%.
On the same counts, the results for `Cc1c(Cc2cccc(NS(=O)(=O)C3CC3)c2F)c(=O)oc2cc(OC(=O)N(C)C)ccc12` [Compound 113] are 24.7% and 48%.
Regarding `Cc1c(Cc2ccnc(NS(=O)(=O)C(C)C)c2F)c(=O)oc2cc(OC(=O)N(C)C)ccc12` [Compound 114], the activity at 0.01 µM in experiment [1] was determined as 36.6%. For the same molecule, the activity at 0.1 µM in experiment [2] came to 59.9%.
In the same order, the values of `Cc1c(Cc2cccc(NS(=O)(=O)C(C)C)c2F)c(=O)oc2cc(OC(=O)N(C)C)ccc12` [Compound 115] are 13.5% and 39.2%.
In the same order, the values of `Cc1c(Cc2cccc(NS(=O)(=O)C3CCC3)c2F)c(=O)oc2cc(OC(=O)N(C)C)ccc12` [Compound 118] are 21.1% and 39.1%.
Turning to `CCS(=O)(=O)Nc1nccc(Cc2c(C)c3ccc(OC(=O)N(C)C)cc3oc2=O)c1F` [Compound 119], in experiment [1], the activity at 0.01 µM was determined as 64.8%. Also, the activity at 0.1 µM in experiment [2] is 66.1%.
As to `Cc1c(Cc2ccnc(NS(=O)(=O)C3CCC3)c2F)c(=O)oc2cc(OC(=O)N(C)C)ccc12` [Compound 125], in experiment [1], the activity at 0.01 µM was 54.4%. Besides, in experiment [2], the activity at 0.1 µM came out at 41.7%.
Turning to `CNS(=O)(=O)Nc1cccc(Cc2c(CN(C)C)c3ccc(OC(=O)N4CCC4)cc3oc2=O)c1F` [Compound 128], the activity at 0.01 µM in experiment [1] turned out to be 66.3%. Also, the activity at 0.1 µM in experiment [2] is 37.7%.
With `CCS(=O)(=O)Nc1cccc(Cc2c(CN(C)C)c3cc(Cl)c(OC(=O)N(C)C)cc3oc2=O)c1F` [Compound 132], the activity at 0.01 µM in experiment [1] was found to be 62.6%. Also, in experiment [2], the activity at 0.1 µM worked out at 57.8%.
On the same counts, the results for `CNS(=O)(=O)Nc1nccc(Cc2c(CN(C)C)c3cc(F)c(OC(=O)N(C)C)cc3oc2=O)c1F` [Compound 140] are 65% and 70.3%.
On the same counts, the results for `CCS(=O)(=O)Nc1cccc(Cc2c(CN3CCNCC3)c3cc(Cl)c(OC(=O)N(C)C)cc3oc2=O)c1F` [Compound 147] are 21.7% and 46.4%.
In the same order, the values of `CCS(=O)(=O)Nc1nccc(Cc2c(CN(C)C)c3ccc(OC(=O)N(C)C)cc3oc2=O)c1F` [Compound 148] are 49.6% and 56.5%.
Take `CN(C)C(=O)Oc1ccc2c(CN3CCNCC3)c(Cc3ccnc(NS(=O)(=O)C4CC4)c3F)c(=O)oc2c1` [Compound 150]: in experiment [1], the activity at 0.01 µM was found to be 47.4%. The activity at 0.1 µM in experiment [2] was 90.2%.
As for `CNS(=O)(=O)Nc1cccc(Cc2c(CN3CC4(CCC4)C3)c3ccc(OC(=O)N(C)C)cc3oc2=O)c1F` [Compound 153], the activity at 0.01 µM in experiment [1] is 50.2%. Also, the activity at 0.1 µM in experiment [2] is 54.1%.
Take `CNS(=O)(=O)Nc1cccc(Cc2c(CNC(=O)c3c[nH]nn3)c3ccc(OC(=O)N(C)C)cc3oc2=O)c1F` [Compound 211]: in experiment [1], the activity at 0.01 µM was 121% and the activity at 10 µM was determined as 70.8%.
Consider `CNS(=O)(=O)Nc1cccc(Cc2c(CNC(=O)C(C)(C)O)c3ccc(OC(=O)N(C)C)cc3oc2=O)c1F` [Compound 212], for which, in experiment [1], the activity at 0.01 µM was found to be 100% and the activity at 10 µM amounted to 13%.
For the molecule `CNS(=O)(=O)Nc1cccc(Cc2c(CNC(=O)c3nn[nH]n3)c3ccc(OC(=O)N(C)C)cc3oc2=O)c1F` [Compound 213], in experiment [1], the activity at 0.01 µM was found to be 100% and the activity at 10 µM was 70.1%.
In the case of `CNS(=O)(=O)Nc1cccc(Cc2c(CC(=O)NC3CCOCC3)c3ccc(OC(=O)N(C)C)cc3oc2=O)c1F` [Compound 215], in experiment [1], the activity at 0.01 µM is 100% and the activity at 10 µM came to 11.8%.
In the same order, the values of `CNS(=O)(=O)Nc1cccc(Cc2c(CC(=O)N3CC(OC)C3)c3ccc(OC(=O)N(C)C)cc3oc2=O)c1F` [Compound 216] are 89.5% and 4.51%.
On the same counts, the results for `CNS(=O)(=O)Nc1cccc(Cc2c(CNCC(=O)N(C)CC#N)c3ccc(OC(=O)N(C)C)cc3oc2=O)c1F` [Compound 217] are 96.7% and 11.2%.
Turning to `C#CCNC(=O)CNCc1c(Cc2cccc(NS(=O)(=O)NC)c2F)c(=O)oc2cc(OC(=O)N(C)C)ccc12` [Compound 218], in experiment [1], the activity at 0.01 µM amounted to 113% and the activity at 10 µM was found to be 9.46%.
On the same counts, the results for `CNS(=O)(=O)Nc1cccc(Cc2c(CNCC(=O)N(C)c3ccccc3)c3ccc(OC(=O)N(C)C)cc3oc2=O)c1F` [Compound 220] are 109% and 4.28%.
In the same order, the values of `CNS(=O)(=O)Nc1cccc(Cc2c(CNCC(=O)Nc3ccccc3)c3ccc(OC(=O)N(C)C)cc3oc2=O)c1F` [Compound 223] are 119% and 3.04%.
